Data reported in patent US7767679B2, “Sulfonylamino-derivatives as novel inhibitors of histone deacetylase” (Janssen Pharmaceutica N.V., priority 2002, dated 2010).

Experiments:
[1] = molecular target: histone deacetylase (HeLa nuclear extracts); test: In vitro assay for inhibition of histone deacetylase; assay type: biochemical; details: HeLa nuclear extracts 60 μg/ml, [3H]acetylated histone H4 peptide substrate, 30 min
Protocol: The in vitro assay for inhibition of histone deacetylase (see example C.1) measures the inhibition of HDAC enzymatic activity obtained with the compounds of formula (I).
HeLa nuclear extracts (supplier: Biomol) were incubated at 60 μg/ml with 2×10^−8 M of radiolabeled peptide substrate. As a substrate for measuring HDAC activity a synthetic peptide, i.e. the amino acids 14-21 of histone H4, was used. The substrate is biotinylated at the NH2-terminal part with a 6-aminohexanoic acid spacer, and is protected at the COOH-terminal part by an amide group and specifically [^3H]acetylated at lysine 16. The substrate, biotin-(6-aminohexanoic)Gly-Ala-([^3H]-acetyl-Lys-Arg-His-Arg-Lys-Val-NH2), was added in a buffer containing 25 mM Hepes, 1 M sucrose, 0.1 mg/ml BSA and 0.01% Triton X-100 at pH 7.4. After 30 min the deacetylation reaction was terminated by the addition of HCl and acetic acid. (final concentration […] respectively). After stopping the reaction, the free ^3H-acetate was extracted with ethylacetate. After mixing and centrifugation, the radioactivity in an aliquot of the upper (organic) phase was counted in β-counter.
For each experiment, controls (containing HeLa nuclear extract and DMSO without compound), a blank incubation (containing DMSO but no HeLa nuclear extract or compound) and samples (containing compound dissolved in DMSO and HeLa nuclear extract) were run in parallel. In first instance, compounds were tested at a concentration of 10^−5M. […] In each test the blank value was substracted from both the control and the sample values. The control sample represented 100% of substrate deactylation. For each sample the radioactivity was expressed as a percentage of the mean value of the controls. […] Herein the effects of test compounds are expressed as pIC50 (the negative log value of the IC50-value).

[2] = test system: A2780 ovarian carcinoma cells; test: Antiproliferative activity on A2780 cells (MTT); assay type: cell-based; details: Homo sapiens, 96 h, four days of incubation, read-out: Cellular activity pIC50 (converted)
Protocol: Cellular activity of the compounds of formula (I) was determined on A2780 tumour cells using a colorimetric assay for cell toxicity or survival (Mosmann Tim, Journal of Immunological Methods 65: 55-63, 1983)(see example C.2).
All compounds tested were dissolved in DMSO and further dilutions were made in culture medium. Final DMSO concentrations never exceeded 0.1% (v/v) in cell proliferation assays. Controls contained A2780 cells and DMSO without compound and blanks contained DMSO but no cells. MTT was dissolved at 5 mg/ml in PBS. A glycine buffer comprised of 0.1 M glycine and 0.1 M NaCl buffered to pH 10.5 with NaOH (1 N) was prepared (all reagents were from Merck).
The human A2780 ovarian carcinoma cells (a kind gift from Dr. T. C. Hamilton [Fox Chase Cancer Centre, Pennsylvania, USA]) were cultured in RPMI 1640 medium supplemented with 2 mM L-glutamine, 50 μg/ml gentamicin and 10% fetal calf serum. Cells were routinely kept as monolayer cultures at 37° C. in a humidified 5% CO2 atmosphere. Cells were passaged once a week using a trypsin/EDTA solution at a split ratio of 1:40. All media and supplements were obtained from Life Technologies. Cells were free of mycoplasma contamination as determined using the Gen-Probe Mycoplasma Tissue Culture kit (supplier: BioMérieux).
Cells were seeded in NUNC™ 96-well culture plates (Supplier: Life Technologies) and allowed to adhere to the plastic overnight. Densities used for plating were 1500 cells per well in a total volume of 200 μl medium. After cell adhesion to the plates, medium was changed and drugs and/or solvents were added to a final volume of 200 μl. Following four days of incubation, medium was replaced by 200 μl fresh medium and cell density and viability was assessed using an […] assay. To each well, 25 μl μl MTT solution was added and the cells were further incubated for 2 hours at 37° C. The medium was then carefully aspirated and the blue MT-formazan product was solubilized by addition of 25 μl glycine buffer followed by 100 μl of DMSO. […] Within an experiment, the results for each experimental condition are the mean of 3 replicate wells. For initial screening purposes, compounds were tested at a single fixed concentration of 10^−6 M. For active compounds, the experiments were repeated to establish full concentration-response curves. For each experiment, controls (containing no drug) and a blank incubation (containing no cells or drugs) were run in parallel. The blank value was subtracted from all control and sample values. For each sample, the mean value for cell growth (in absorbance units) was expressed as a percentage of the mean value for cell growth of the control. […] Herein the effects of test compounds are expressed as pIC50 (the negative log value of the IC50-value).

Row | Compound | Enzyme activity pIC50 [1] | IC50 [2] [nM] | melting point [°C]
1 | O=C(NO)c1cnc(N2CCC(CNS(=O)(=O)N3CCOCC3)CC2)nc1 [Co. No. 28] | 7.074 | 7780 | 217
2 | O=C(NO)c1ccc(N2CCC(NS(=O)(=O)c3ccc4ccccc4c3)CC2)nc1 [compound 12] | 7.438 | 2910 | 
3 | O=C(NO)c1cnc(N2CCC(NS(=O)(=O)N3CCOCC3)CC2)nc1 [Co. No. 25] | 6.449 | > 10000 | 217
4 | O=C(NO)c1ccc(N2CCC(NS(=O)(=O)c3ccc4ccccc4c3)C2)cc1 (stereo not drawn) [compound 16] | 6.293 | > 10000 | 
5 | O=C(NO)c1cnc(N2CCC(NS(=O)(=O)c3ccc4ccccc4c3)CC2)nc1N1CCN(S(=O)(=O)c2ccc3ccccc3c2)CC1 [Co. No. 6] | <5 | 2090 | 80
6 | O=C(NO)c1cnc(N2CCN(CCNS(=O)(=O)c3ccc4ccccc4c3)CC2)nc1 [compound 32] | 7.526 | 556 | 
7 | O=C(Nc1ccc(N2CCC(NS(=O)(=O)c3ccc4ccccc4c3)CC2)cc1)/C(Cc1ccccc1)=N/O [compound 19] | <5 | 4300 | 
8 | O=C(Nc1ccc(N2CCC(NS(=O)(=O)c3ccc(-c4ccccc4)cc3)CC2)cc1)/C(Cc1ccccc1)=N/O [Co. No. 3] | <5 | 1800 | 262
9 | Cc1cc(C(=O)NO)ccc1N1CCC(NS(=O)(=O)c2ccc3ccccc3c2)CC1 [compound 11] | 5.829 | 1640 | 
10 | O=C(NO)c1ccc(N2CCC(NS(=O)(=O)c3ccc4ccccc4c3)CC2)cc1 [Co. No. 1] | 6.523 | 5280 | 
11 | O=C(NO)c1ccc(N2CCC(NS(=O)(=O)c3ccc(-c4ccccc4)cc3)C2)nc1 (stereo not drawn) [compound 18] | 5.321 | 49.8 | 
12 | O=C(NO)c1cnc(N2CCN(CCCNS(=O)(=O)c3ccc4ccccc4c3)CC2)nc1 (hydrate or solvate) [Co. No. 26] |  |  | 115
13 | Cc1cc(C(=O)NO)ccc1N1CCC(NS(=O)(=O)c2ccc(-c3ccccc3)cc2)CC1 [compound 13] | 5.428 | 698 | 
14 | O=C(NO)c1cnc(N2CCN(CCCNS(=O)(=O)c3ccc4ccccc4c3)CC2)nc1 [Co. No. 26] | 7.85 | 546 | 
15 | O=C(NO)c1ccc(N2CCCC(NS(=O)(=O)c3ccc4ccccc4c3)CC2)nc1 (stereo not drawn) [Co. No. 10] | 6.893 | 2120 | 142
16 | O=C(NO)c1ccc(N2CCC(NS(=O)(=O)c3ccc(-c4ccccc4)cc3)CC2)cc1 [compound 14] | 6.116 | 2090 | 
17 | O=C(NO)c1ccc(N2CCC(NS(=O)(=O)c3ccc4ccccc4c3)C2)nc1 (stereo not drawn) [compound 17] | 6.95 | > 10000 | 

Other lines, results leading:

Row | Enzyme activity pIC50 [1] | IC50 [2] [nM] | melting point [°C] | Compound
18 | 8.199 | 362 |  | O=C(NO)c1cnc(N2CCC(CNS(=O)(=O)c3ccc(-c4ccccc4)cc3)CC2)nc1 [compound 21]
19 | 7.469 | 738 |  | O=C(NO)c1cnc(N2CCC(CNS(=O)(=O)c3ccccc3-c3cc4ccccc4o3)CC2)nc1 [compound 43]
20 | 7.341 | 2180 |  | O=C(NO)c1cnc(N2CCC(CNS(=O)(=O)c3ccccc3-c3cccc(CO)c3)CC2)nc1 [compound 37]
21 | 7.04 | 3720 | > 260 | CN(C1CCN(c2ncc(C(=O)NO)cn2)CC1)S(=O)(=O)c1ccc2ccccc2c1 [Co. No. 29]
22 | 7.265 | 1050 |  | O=C(NO)c1cnc(N2CCC(CNS(=O)(=O)c3ccccc3-c3ccc(CO)cc3)CC2)nc1 [compound 36]
23 | 7.614 | 2140 |  | CS(=O)(=O)c1ccc(-c2ccccc2S(=O)(=O)NCC2CCN(c3ncc(C(=O)NO)cn3)CC2)cc1 [Co. No. 30]
24 | 7.371 | 513 |  | COc1ccc(-c2ccccc2S(=O)(=O)NCC2CCN(c3ncc(C(=O)NO)cn3)CC2)cc1 [compound 45]
25 | 7.49 | 1660 | 158 | CN(C1CCN(c2ncc(C(=O)NO)cn2)C1)S(=O)(=O)c1ccc2ccccc2c1 (stereo not drawn) [Co. No. 27]
26 | 7.337 | 2400 |  | O=C(NO)c1cnc(N2CCC(N(CCO)S(=O)(=O)c3ccc4ccccc4c3)CC2)nc1 [compound 34]
27 | 7.046 | 1160 |  | COCCN(C1CCN(c2ncc(C(=O)NO)cn2)CC1)S(=O)(=O)c1ccc2ccccc2c1 [compound 35]
28 | 7.126 | 885 |  | Cc1cccc(-c2ccccc2S(=O)(=O)NCC2CCN(c3ncc(C(=O)NO)cn3)CC2)c1 [compound 39]
29 | 6.662 | 3370 |  | CO[C@@H]1CN(c2ncc(C(=O)NO)cn2)CC[C@@H]1NS(=O)(=O)c1ccc2ccccc2c1 [compound 23]
30 | 7.403 | 471 |  | Cc1ccccc1-c1ccccc1S(=O)(=O)NCC1CCN(c2ncc(C(=O)NO)cn2)CC1 [compound 41]
31 | 7.903 | 1070 |  | O=C(NO)c1cnc(N2CCCC(NS(=O)(=O)c3ccc4ccccc4c3)CC2)nc1 (stereo not drawn) [compound 24]
32 | 7.273 | 685 |  | O=C(NO)c1cnc(N2CCC(CNS(=O)(=O)c3ccccc3-c3ccsc3)CC2)nc1 [compound 40]
33 | 7.584 | 455 |  | COc1cccc(-c2ccccc2S(=O)(=O)NCC2CCN(c3ncc(C(=O)NO)cn3)CC2)c1 [compound 42]
34 | 7.857 | 5960 |  | O=C(NO)c1cnc(N2CCC(NS(=O)(=O)c3ccc4ccccc4c3)C2)nc1 (stereo not drawn) [compound 31]
35 | 7.432 | 643 |  | CN(C)c1ccc(-c2ccccc2S(=O)(=O)NCC2CCN(c3ncc(C(=O)NO)cn3)CC2)cc1 [compound 44]
36 | 7.154 | 1160 |  | O=C(NO)c1cnc(N2CCC(CNS(=O)(=O)c3ccccc3-c3ccoc3)CC2)nc1 [compound 38]
